The nature of series [1]: Systemic delivery study: plasma pharmacokinetics after iontophoretic patch or subcutaneous injection. It is filed as in vivo, domestic swine. The following applies: subcutaneous 6 mg; for Cmax / half-life / AUC(0-t): pig, sc; for half-life: read-out: t½ (converted). The text has this:
The purpose of the study was to determine the systemic plasma exposure, absorption characteristics and elimination characteristics of the active agent Dexamethasone sodium phosphate, (DexP) when administered from either a subcutaneous injection or an iontophoretic patch in domestic swine.
The patch is an active (iontophoretic) drug delivery patch which employs a low-level electrical field produced by a novel power source incorporated into the patch to “drive” the drug into the body in a pain-free manner. This system has advantages over passive patches, including more rapid and controlled delivery and the ability to deliver a wider variety of drugs.
The study entailed administration of DexP from three concurrently applied patches delivered at 150 μA, 225 μA and 300 μA over a 9 hour period in 1 male and 1 female domestic swine. Each patch contained a 10 mg/ml Dexamethasone sodium phosphate gel (2% HPMC) in the donor cell compartment, and a 0.9% saline gel (2% HPMC) in the return cell compartment. As a comparator, a subcutaneous 6 mg dose of DexP was delivered to 1 male and 1 female domestic swine. All animals were implanted with a central venous access port (Hickman catheter) prior to administration of the drug and plasma samples were obtained pre-dosing and up to 24 hours after dosing. Samples were analyzed for the presence of dexamethasone phosphate and the data tabulated and selected pharmacokinetic parameters were calculated.

The conditions of series [2]: iontophoresis of 4 mg/ml solution, charge dosage 40-80 mA-minutes, cited from earlier work.
Where [3] appears, read: in vivo, female swine (animal 8P168).
The mark [4] stands for this setting: in vivo, male swine (animal 8P167).

Like-named read-outs stand apart in the source and are kept apart here.

For orientation: Cmax means the maximum level reached in the sampled fluid or tissue. Take `C[C@@H]1C[C@H]2[C@@H]3CCC4=CC(=O)C=C[C@]4(C)[C@@]3(F)[C@@H](O)C[C@]2(C)[C@@]1(O)C(=O)COP(=O)(O)O` [DexP, Dexamethasone sodium phosphate]: the Cmax in series [1] (setting [3]) is 27.3 ng/mL; in series [1] (setting [4]) it was 28.4 ng/mL. The half-life in series [1] (setting [3]) was 1.5 h; in series [1] (setting [4]), 0.85 h. Besides, the AUC(0-t) in series [1] (in vivo, male swine (animal 8P167), read-out: AUC(0-12)) is 36.4 ng·h/mL; in series [1] (plasma, female swine, read-out: AUC(0-14)), 60.5 ng·h/mL. For the same molecule, the “AUC(0-12)” value in series [1] (female swine (animal 8P168)) was found to be 60.5 ng·h/mL.
As to `C[C@@H]1C[C@H]2[C@@H]3CCC4=CC(=O)C=C[C@]4(C)[C@@]3(F)[C@@H](O)C[C@]2(C)[C@@]1(O)C(=O)CO` [dexamethasone], the “amount of dexamethasone delivered (highest estimate)” value in series [2] (J Pharm Compounding 2003) is listed as 1.4 milligrams. For the same molecule, the “amount of dexamethasone delivered (lowest estimate)” value in series [2] (Petelenz 1992) was 10 micrograms.

These data come from patent US9421356B2, “Transdermal methods and systems for the delivery of corticosteroid compounds” (priority 2007, dated 2016).
